Measurements from publication PMC11927696, “Synthetic mycolates derivatives to decipher protein mycoloylation, a unique post-translational modification in bacteria” (The Journal of Biological Chemistry, 2025).
Values belong to the molecule of their own block, whether it stands above or below them.

Assays:
MytC (MytChis) [1] = target: T1, MytC (MytChis) (Corynebacterium glutamicum, UniProt Q8NTG4); assay: X-ray crystallography, […] Å; assay type: binding
T1 construct: gene Cgl0343; residues 30-363 seen in crystal

MytC (MytChis) [2] = target: T1, MytC (MytChis); assay: PorA mycoloylation, MALDI-TOF MS; assay type: biochemical; settings: PorA acceptor; in combination with TDM/TMM mix, pH 8.0, 37 °C, 3 h
MytA (MytAhis) [3] = target: T2, MytA (MytAhis) (Corynebacterium glutamicum, UniProt P0C1D6); assay: trehalose acylation (trehalose dipalmitate formation), MALDI-TOF MS; assay type: biochemical; settings: 1 mM, acts as donor and acceptor, 5 μM MytA, pH 8.0, 37 °C, 3 h
T2 construct: gene csp1

MytA (MytAhis) [4] = target: T2, MytA (MytAhis); assay: trehalose mycoloylation (TDM formation), TLC and MALDI-TOF MS; assay type: biochemical; settings: 1 mM, acts as donor and acceptor, 5 μM MytA, pH 8.0, 37 °C, 3 h

T1 sequence (Q8NTG4 entry or part of it): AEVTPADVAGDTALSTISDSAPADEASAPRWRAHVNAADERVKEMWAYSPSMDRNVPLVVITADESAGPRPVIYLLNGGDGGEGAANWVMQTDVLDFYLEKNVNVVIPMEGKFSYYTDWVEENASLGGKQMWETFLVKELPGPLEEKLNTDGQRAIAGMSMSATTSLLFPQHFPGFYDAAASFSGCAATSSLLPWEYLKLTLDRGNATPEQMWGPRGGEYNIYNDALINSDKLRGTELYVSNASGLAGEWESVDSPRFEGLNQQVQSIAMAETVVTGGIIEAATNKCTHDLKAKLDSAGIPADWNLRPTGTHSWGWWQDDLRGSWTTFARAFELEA
T2 sequence (P0C1D6 44-657): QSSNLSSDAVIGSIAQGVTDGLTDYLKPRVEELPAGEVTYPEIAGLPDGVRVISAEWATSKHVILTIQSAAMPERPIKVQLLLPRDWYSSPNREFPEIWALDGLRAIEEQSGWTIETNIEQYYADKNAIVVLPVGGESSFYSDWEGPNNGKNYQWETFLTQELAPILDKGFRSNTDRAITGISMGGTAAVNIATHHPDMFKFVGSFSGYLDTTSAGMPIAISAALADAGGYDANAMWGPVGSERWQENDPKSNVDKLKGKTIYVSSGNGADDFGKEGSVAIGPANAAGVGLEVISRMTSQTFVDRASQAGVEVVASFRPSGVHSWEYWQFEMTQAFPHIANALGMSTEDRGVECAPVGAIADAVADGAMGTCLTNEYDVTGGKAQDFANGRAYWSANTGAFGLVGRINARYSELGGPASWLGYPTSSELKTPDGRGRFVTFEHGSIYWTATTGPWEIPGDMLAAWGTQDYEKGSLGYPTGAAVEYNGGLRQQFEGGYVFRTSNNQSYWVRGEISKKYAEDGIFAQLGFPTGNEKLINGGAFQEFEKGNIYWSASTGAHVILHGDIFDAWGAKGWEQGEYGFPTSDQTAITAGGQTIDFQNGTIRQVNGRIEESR

Compound: CCCCC[C@@H](O)[C@@H](CCCCC)C(=O)OC[C@H]1O[C@H](O[C@H]2O[C@H](CO)[C@@H](O)[C@H](O)[C@H]2O)[C@H](O)[C@@H](O)[C@@H]1O [compound 2, TMM-C13:0]
X-ray crystallography, 2.69 Å (MytC (MytChis) [1]; covalent, mycoloyl ester on catalytic S189, co-crystallised, pH 7.1): S189 Oγ atom forms an ester bond with the carbonyl of the analog

Compound: CCCCCCCCCCCCCCC[C@@H](O)CC(=O)OC[C@H]1O[C@H](O[C@H]2O[C@H](CO)[C@@H](O)[C@H](O)[C@H]2O)[C@H](O)[C@@H](O)[C@@H]1O [compound 4, analog 4]
PorA mycoloylation, MALDI-TOF MS (MytC (MytChis) [2]): is perfectly used as a substrate to acylate PorA

Compound: CCCCCCCCCCCCCCCC(=O)OC[C@H]1O[C@H](O[C@H]2O[C@H](CO)[C@@H](O)[C@H](O)[C@H]2O)[C@H](O)[C@@H](O)[C@@H]1O [compound 6, TMP]
trehalose acylation (trehalose dipalmitate formation), MALDI-TOF MS (MytA (MytAhis) [3]): both compounds are efficient substrates of MytA

trehalose mycoloylation (TDM formation), TLC and MALDI-TOF MS (MytA (MytAhis) [4]): a small amount of TDM is detected on TLC
Compound: CCCCCCCCCCCCCCC[C@@H](O)[C@@H](CCCCCCCCCCCCCC)C(=O)OC[C@H]1O[C@H](O[C@H]2O[C@H](CO)[C@@H](O)[C@H](O)[C@H]2O)[C@H](O)[C@@H](O)[C@@H]1O [synthetic TMM-C32:0]

Compound: OC[C@H]1O[C@H](O[C@H]2O[C@H](CO)[C@@H](O)[C@H](O)[C@H]2O)[C@H](O)[C@@H](O)[C@@H]1O [trehalose]
X-ray crystallography, 2.69 Å (MytC (MytChis) [1]; second site, protein surface near active site groove, contacts E225 and D232 of helix α8, crystal with TMM-C13:0): A trehalose moiety was identified on the surface of MytC
